Columns and labels:
[1] = tested on: 996 bp segment of human myeloid leukocyte c-jun cDNA; experiment: PCR amplification of c-jun cDNA with diol additives, standard cycling; type: biochemical; details: c-jun; for Effective range: concentration interval over which densitometric volume of target band is at least 50% of maximum volume; for Potency: normalized maximum densitometric volume of target band: 1,5-Pentanediol = 1
Procedure: Amplification reactions were carried out under the following general conditions. Those skilled in the art will appreciate, however, that to the extent that the conditions (set forth in this application) required for specific experiments described in this example were inconsistent with the following general conditions, limited exceptions to the following general conditions were made The general conditions were as follows: 10 Mm Tris-HCl (Ph 8.8), 50 Mm KCl, 1.5 Mm MgCl2, 0.01% (w/v) gelatin, 0.2 Um primers, 0.06 ng/ul template, 0.2 Mm each Dntp, 0.04 U/ul Taq polymerase. The templates used were bovine brain N-WASP cDNA (1518 bp), a 996 bp segment of human myeloid leukocyte c-jun cDNA, a 511 bp segment of human prostate-specific membrane antigen (PSM) cDNA, and bovine brain glycolipid transfer protein (GTP) cDNA (660 bp). cDNA synthesis was carried out using the FIRST-STRAND® RT-PCR kit from Stratagene on the respective mRNAs purchased from Clontech. All amplification reactions for gene were carried out using a single master batch of cDNA. Taq polymerase and dNTPs were obtained from Stratagene. Primers were obtained from Genosys. Primer melting temperatures (Tms) were calculated using the Genosys oligo calculator program. The sequences of the primers were as follows.
Polymerase chain reactions for the N-WASP gene were conducted on a ROBOCYCLER® Gradient 40 thermal cycler from Stratagene using 100 ul solutions in 600 ul thin-walled tubes. For expediency, amplification of c-jun, PSM and GTP was carried out in a ROBOCYCLER® Gradient 96 thermal cycler from Stratagene using 50 ul solutions in 200 ul thin-walled tubes. Prior to Taq polymerase addition, a hotstart protocol was carried out that consisted of an initial cycle of 95° C. for 5 minutes (11) to ensure complete first-strand separation, followed by a cycle of 54° C. for 5 minutes. Amplifications were run for 30 cycles. […] Extension was done at 72° C. for periods depending on target length: 2 minutes for N-WASP, 1.5 minutes for c-jun and GTP, and 1 minute for PSM. Annealings were carried out either at fixed concentrations of additives using temperature gradients of 38-56° C. for N-WASP and 44-58° C. for the other targets, or at varying concentrations of additives using fixed temperatures of 41° C. for N-WASP, 50° C. for c-jun and PSM, and 54° C. for GTP.
Amplification products were analyzed by agarose gel electrophoresis on 0.8% agarose gels in which 20 ul reaction products were loaded with 4 ul loading buffer. Gels were stained with ethidium bromide, visualized on a UV transilluminator (Fisher), and documented by photography. Densitometric quantitation of amplification products was carried out using IMAGE SCANNER® and IMAGE MASTER® software from Amersham Pharmacia. Background correction was done using the software's rolling disc method.
With PSM, 1,2-propanediol, 1,2-butanediol, 1,3-butanediol, 1,4-butanediol and glycerol were tested; with c-jun, ethylene glycol and 1,3-propanediol were also tested in addition to these compounds. […] The following additive concentrations were tested using these annealing temperatures: 1,2-propanediol—0.5, 0.8, 1.1, 1.4, 1.7 and 2.0M; 1,2-butanediol—0.1, 0.3, 0.5, 0.6, 0.7 and 0.8M; 1,3-butanediol—0.1, 0.3, 0.5, 0.6, 0.9, 1.1, 1.2M; 1,4-butanediol—0.1 to 1.1M in 0.2M intervals; 1,5-pentanediol—0.1-0.6M in 0.1M intervals; glycerol—0.5 to 1.9M in 0.2M intervals, and 2.2M.

50% GC DNA = experiment: Predicted cosolvent-induced Tm depression of DNA; type: physicochemical; details: 1.0M 1,5-pentanediol, 0.7M 1,6-hexanediol, linearity not verified
Procedure: The compounds utilized in the first phase (testing using 1.0M 1,5-pentanediol and 0.7M 1,6-hexanediol at temperatures between 46 and 62° C.) were chosen on the basis of the following rationale. The optimal additive for a low temperature PCR reaction is one that lowers the melting temperature of DNA as much as possible while minimally compromising polymerase activity. 1,5-Pentanediol and 1,6-hexanediol are both powerful DNA melting agents. In addition, it was found in the 62° C. activity studies that the rate of activity decline with concentration of 1,5-pentanediol was roughly equivalent to that of 1,2-butanediol, despite the fact that the former is a much stronger DNA denaturant. 1.0M 1,5-pentanediol and 0.7M 1,6-hexanediol are predicted to lower the Tm of a 50% GC DNA by approximately the same amount: 19° C.

Taq polymerase = target: T1, Taq polymerase (Thermus aquaticus, UniProt P19821); experiment: Predicted thermostability (half-life) of Taq polymerase in the presence of diols; type: biochemical
T1 construct: purchased Stratagene
T1 sequence (P19821 whole entry): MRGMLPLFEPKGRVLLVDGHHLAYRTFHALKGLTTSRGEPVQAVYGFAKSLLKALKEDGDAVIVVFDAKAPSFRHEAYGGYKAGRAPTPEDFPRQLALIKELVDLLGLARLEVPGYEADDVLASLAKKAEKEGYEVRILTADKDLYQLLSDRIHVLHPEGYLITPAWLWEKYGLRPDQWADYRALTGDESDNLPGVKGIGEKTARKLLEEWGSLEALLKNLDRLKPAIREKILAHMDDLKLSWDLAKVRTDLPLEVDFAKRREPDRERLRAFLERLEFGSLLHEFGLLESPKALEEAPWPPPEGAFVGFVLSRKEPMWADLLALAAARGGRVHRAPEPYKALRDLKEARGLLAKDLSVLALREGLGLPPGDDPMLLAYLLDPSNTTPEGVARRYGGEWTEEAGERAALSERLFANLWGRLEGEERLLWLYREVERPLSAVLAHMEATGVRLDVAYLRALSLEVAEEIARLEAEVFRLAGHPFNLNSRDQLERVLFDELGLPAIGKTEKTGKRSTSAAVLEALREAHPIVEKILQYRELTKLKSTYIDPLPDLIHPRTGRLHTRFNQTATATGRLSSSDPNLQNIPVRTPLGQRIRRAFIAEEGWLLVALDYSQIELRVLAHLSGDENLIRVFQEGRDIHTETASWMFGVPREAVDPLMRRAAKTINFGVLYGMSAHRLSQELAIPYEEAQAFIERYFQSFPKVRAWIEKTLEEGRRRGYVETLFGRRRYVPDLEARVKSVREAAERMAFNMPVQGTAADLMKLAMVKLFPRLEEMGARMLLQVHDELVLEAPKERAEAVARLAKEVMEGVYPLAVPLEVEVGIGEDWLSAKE
Procedure: It is possible that this discrepancy was due to the greatly diminished thermostability of the polymerase at the cutoff concentrations. Based on thermodynamic data, Taq polymerase in the absence of template is predicted to have a half-life of about 8 seconds at 95° C. in the presence of 0.9M 1,2-butanediol and 10 seconds in the presence of 0.6M 1,5-pentanediol. These values will be increased in the presence of template, but will still be very low, especially during the initial cycles when template concentration is limited.

| Structure (SMILES) | Effective range [1] [M] | Potency [1] | lowering of the Tm of a 50% GC DNA (50% GC DNA) [°C] | half-life of Taq polymerase (Taq polymerase) [s] |
| --- | --- | --- | --- | --- |
| CCC(O)CO (stereo not drawn) [1,2-Butanediol] | 0.27 to 0.74 | 0.64 | – | – |
| OCCCCCO [1,5-Pentanediol] | 0.17 to 0.45 | 1.00 | ~19 | ~10 |

— US7772383B2, “Chemical PCR: Compositions for enhancing polynucleotide amplification reactions” (The Trustees of Princeton University, priority 2002, dated 2010)
